This note sets out measurements from PMC9914633 (International Journal of Environmental Research and Public …, 2023).

The target in the assay is T1, xoSNAT1 (Xanthomonas oryzae, UniProt A0ACG7R854).
T1 construct: gene DZA53_20490
Conditions: serotonin 0.5 mM; acetyl-CoA 0.5 mM; 100 mM potassium phosphate pH 8.8; 35 °C.

Take `NCCc1c[nH]c2ccc(O)cc12` [serotonin]: the “LC-MS/MS of serotonin and product” value was “GST and xoSNAT2 have no SNAT activity, while xoSNAT1 showed only low activity”.
